# According to PubChem BioAssay (NCI):
#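 All cell lines were grown in 96-well plates and treated with compound for 48 hours. GI50 = concentration required for 50% inhibition of growth. At the TGI there is no net growth.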
# Tests used:
# Assay in all cases: DTP human tumour cell line panel, 48 h
# M19-MEL melanoma = system: M19-MEL melanoma
# KM20L2 colon = system: KM20L2 colon
# DLD-1 colon = system: DLD-1 colon
# XF 498 CNS = system: XF 498 CNS
# DMS 273 small cell lung = system: DMS 273 small cell lung
# HOP-18 NSCLC = system: HOP-18 NSCLC
# LXFL 529 NSCLC = system: LXFL 529 NSCLC
# RXF-631 renal = system: RXF-631 renal
# MDA-N = system: MDA-N
Compound,TGI (M19-MEL melanoma),TGI (KM20L2 colon),TGI (DLD-1 colon),TGI (XF 498 CNS),TGI (DMS 273 small cell lung),TGI (HOP-18 NSCLC),TGI (LXFL 529 NSCLC),TGI (RXF-631 renal),TGI (MDA-N),other results
O=C(O)CNS(=O)(=O)c1ccc(NCc2ccccc2)cc1,> 100 µM,> 100 µM,> 100 µM,> 100 µM,> 100 µM,> 100 µM,> 100 µM,–,–,–
CCOC(=O)[C]1([Bi]([CH3])[CH3])N=NC(C(=O)OC)=C1C(=O)OC (stereo not given),32.5 µM,–,32.5 µM,–,59.1 µM,31 µM,35.2 µM,31.4 µM,–,GI50 (RXF-631 renal): 17.2 µM; GI50 (M19-MEL melanoma): 17.6 µM; GI50 (DLD-1 colon): 18.3 µM; GI50 (DMS 273 small cell lung): 22.5 µM; GI50 (HOP-18 NSCLC): 17.3 µM; GI50 (LXFL 529 NSCLC): 14.5 µM
O=C(/N=N/C(=O)OCc1ccccc1)OCc1ccccc1,> 100 µM,> 100 µM,–,> 100 µM,> 100 µM,> 100 µM,> 100 µM,> 100 µM,–,–
Brc1cccc(C=NC23CC4CC(CC(C4)C2)C3)c1,> 100 µM,> 100 µM,> 100 µM,> 100 µM,> 100 µM,> 100 µM,> 100 µM,–,–,–
Cc1ccc2c(c1)[n+]([O-])c(N)n[n+]2[O-],–,–,–,–,–,–,–,–,> 100 µM,–
NC(CCC(=O)NC(CSSCCCCS(=O)O)C(=O)NCC(=O)O)C(=O)O (stereo not given),> 100 µM,> 100 µM,> 100 µM,> 100 µM,> 100 µM,> 100 µM,> 100 µM,> 100 µM,–,–
CCC[CH2][Sn]1([CH2]CCC)[O]Cc2nc(C)ccc2[O]1,19.2 µM,23.6 µM,21.9 µM,7.8 µM,22.9 µM,–,5.75 µM,–,–,GI50 (M19-MEL melanoma): 4.49 µM; GI50 (KM20L2 colon): 10.9 µM; GI50 (DLD-1 colon): 10.2 µM; GI50 (XF 498 CNS): 2.34 µM; GI50 (DMS 273 small cell lung): 11 µM; GI50 (LXFL 529 NSCLC): 2.07 µM
COc1ccc(NC2=CC(=O)C(=O)c3ccccc32)nn1,–,–,–,–,–,–,–,–,1.16 µM,–
O=C(/C=C/c1c(O)ccc2ccccc12)c1cccc(O)c1,33.3 µM,> 100 µM,> 100 µM,> 100 µM,> 100 µM,> 86.8 µM,> 100 µM,–,–,–
N#Cc1cc([N+](=O)[O-])ccc1NC(=O)C(=O)Nc1n[nH]c(N)n1,> 100 µM,> 100 µM,> 100 µM,> 100 µM,> 100 µM,–,> 100 µM,> 100 µM,–,–
CC[CH2][Sn]([CH2]CC)([O]C(=O)c1cccnc1SC)[O][Sn]([CH2]CC)([CH2]CC)[O]C(=O)c1cccnc1SC,0.337 µM,2.11 µM,0.998 µM,0.296 µM,1.69 µM,1.81 µM,0.155 µM,–,2.52 µM,GI50 (M19-MEL melanoma): 0.0833 µM; GI50 (KM20L2 colon): 0.775 µM; GI50 (DLD-1 colon): 0.219 µM; GI50 (XF 498 CNS): 0.159 µM; GI50 (DMS 273 small cell lung): 0.367 µM; GI50 (HOP-18 NSCLC): 0.689 µM; GI50 (MDA-N): 1.27 µM; GI50 (LXFL 529 NSCLC): 0.0198 µM
CC(=O)CNC(=O)OC(C)(C)C,> 100 µM,> 100 µM,> 100 µM,> 100 µM,> 100 µM,–,–,–,–,–
CC(C)C(=O)NC(=S)Nc1ccc([N+](=O)[O-])cc1C#N,> 100 µM,> 100 µM,> 100 µM,> 100 µM,> 100 µM,> 100 µM,> 100 µM,> 100 µM,–,–
O/N=C/C1c2ccccc2-c2ccccc21,–,–,–,–,–,–,–,–,31.9 µM,–
OCC(O)CC[CH2][Sn]([Br])([c]1ccccc1)[c]1ccccc1 (stereo not given),> 100 µM,> 100 µM,> 100 µM,> 100 µM,> 100 µM,> 100 µM,> 100 µM,–,–,GI50 (M19-MEL melanoma): > 100 µM; GI50 (KM20L2 colon): > 100 µM; GI50 (DLD-1 colon): > 100 µM; GI50 (XF 498 CNS): > 100 µM; GI50 (DMS 273 small cell lung): > 100 µM; GI50 (HOP-18 NSCLC): > 100 µM; GI50 (LXFL 529 NSCLC): 88.5 µM
CC1=NN(C(=O)Nc2ccccc2)C(=O)C2CCC(=O)N12 (stereo not given),> 100 µM,> 100 µM,> 100 µM,> 100 µM,> 100 µM,–,> 100 µM,> 100 µM,–,–
C[C@]12CC[C@H]3[C@@H](CC=C4C[C@@H](O)CC[C@@]43C)[C@@H]1CC[C@@H]2N(CCO)CCO,–,–,–,–,–,–,–,–,> 100 µM,–
[Cl-].[Dy+3].[O-]/N=C(\c1ccccc1)c1ccccn1.[O-]/N=C(\c1ccccc1)c1ccccn1.[O-]/N=C(\c1ccccc1)c1ccccn1,94.6 µM,> 100 µM,> 100 µM,–,> 100 µM,–,> 100 µM,–,–,GI50 (M19-MEL melanoma): 31.3 µM; GI50 (KM20L2 colon): 42 µM; GI50 (DLD-1 colon): 35.9 µM; GI50 (DMS 273 small cell lung): 29.8 µM; GI50 (LXFL 529 NSCLC): 41.2 µM
O=C1CCC2(c3ccc(F)cc3)Nc3cc(Cl)ccc3N12 (stereo not given),> 100 µM,> 100 µM,> 100 µM,86.2 µM,> 100 µM,> 100 µM,> 100 µM,–,–,–
C/C(CC(=O)Nc1ccc(C)cc1C)=N/N=C(N)N,> 100 µM,> 100 µM,> 100 µM,> 100 µM,> 100 µM,–,> 100 µM,> 100 µM,–,–

Compound,TGI (M19-MEL melanoma),TGI (KM20L2 colon),TGI (DLD-1 colon),TGI (XF 498 CNS),TGI (DMS 273 small cell lung),TGI (HOP-18 NSCLC),TGI (LXFL 529 NSCLC),TGI (RXF-631 renal),TGI (MDA-N),other results
O=C1O[C@@H](c2ccc3c(c2)OCO3)C2C(=O)O[C@@H](c3ccc4c(c3)OCO4)C12 (stereo not given in full),> 100 µM,> 100 µM,–,> 100 µM,> 100 µM,> 100 µM,–,> 100 µM,–,–
CC(=O)OCCN1c2ccccc2Sc2cnccc21,–,–,–,–,–,–,–,–,> 10 µM,–
CCC(C)c1c(Cl)nc(Cl)nc1Cl (stereo not given),–,–,–,–,–,–,–,–,23.8 µM,–
NC(=O)C(=O)N/N=C(\CC1(O)C(=O)Nc2ccccc21)c1ccc2ccccc2c1 (stereo not given),65.6 µM,–,> 100 µM,51.3 µM,80.5 µM,> 100 µM,> 100 µM,–,–,–
O=C1/C(=C/c2ccccc2)CNC/C1=C\c1ccccc1,2.72 µM,3.09 µM,1.08 µM,6.41 µM,2 µM,22.9 µM,3.58 µM,13 µM,–,–
CC[C@@H]1CN(C)[C@H]2Cc3c([nH]c4ccccc34)C(=O)C[C@H]1C2C(=O)OC (stereo not given in full),–,–,–,–,–,–,–,–,> 100 µM,–
O=c1c2cc([N+](=O)[O-])ccc2sc2ccsc12,> 100 µM,> 100 µM,> 100 µM,> 100 µM,–,> 100 µM,> 100 µM,> 100 µM,–,–
COc1ccc(-c2cc(=O)c3c(OC)c(OC)c(OC)cc3o2)cc1,–,–,–,–,–,–,–,–,> 100 µM,–
CC(C)(CC(=O)Nc1ccccc1)C(=O)O,–,–,–,–,–,–,–,–,> 100 µM,–
Cc1cc2c(cc1C)[n+](=O)c(C(=O)C/C(=N/NC(=O)CC#N)C(=O)Nc1ccccc1C(F)(F)F)c(C)n2[O-],> 100 µM,> 100 µM,–,> 100 µM,> 100 µM,> 100 µM,> 100 µM,33.3 µM,–,–
COC12C=C(C)C(CC1)CC2C(=O)O (stereo not given),> 100 µM,> 100 µM,> 100 µM,> 100 µM,> 100 µM,> 100 µM,> 100 µM,–,–,–
CC(C)(C)C1C=C(Sc2ccccc2)C(=O)O1 (stereo not given),> 100 µM,> 100 µM,> 100 µM,–,> 100 µM,> 100 µM,> 100 µM,–,–,–
COc1ccc(C2=CC3CCC2C3)cc1 (stereo not given),–,–,> 100 µM,> 100 µM,> 100 µM,> 100 µM,> 100 µM,–,–,–
COc1ccc(/C=C/CN(C)CCc2ccccc2)cc1OC,> 100 µM,> 100 µM,–,–,> 100 µM,–,> 100 µM,–,–,–
COc1ccc(/C=C/c2nccc3ccccc23)cc1OC,–,–,–,–,–,–,–,–,> 10 µM,–
CCC[CH2][Sn]([CH2]CCC)([O]C(=O)c1cccnc1SC)[O]C(=O)c1cccnc1SC,1.57 µM,3.51 µM,1.61 µM,2.5 µM,2.26 µM,2.8 µM,0.238 µM,–,–,GI50 (M19-MEL melanoma): 0.36 µM; GI50 (KM20L2 colon): 1.7 µM; GI50 (DLD-1 colon): 0.347 µM; GI50 (XF 498 CNS): 1.25 µM; GI50 (DMS 273 small cell lung): 1.07 µM; GI50 (HOP-18 NSCLC): 1.48 µM; GI50 (LXFL 529 NSCLC): 0.059 µM
COC(=O)C1Cc2c(n(Cc3ccccc3)c3ccccc23)C(CCC(=O)O)N1C(C)C (stereo not given),> 100 µM,> 100 µM,> 100 µM,–,> 100 µM,> 100 µM,> 100 µM,> 100 µM,–,–
COC1/C=C\C=C(/C)C(=O)NC2=CC(=O)C(=O)C(=C2O)CC(C)CC(OC)C(O)C(C)/C=C(\C)C1OC(N)=O (stereo not given),–,–,–,–,–,–,–,–,12.2 µM,–
CN1CCN(C)C12C=c1ccccc1=CC21CC1,37.1 µM,> 58.2 µM,68.2 µM,49.5 µM,> 100 µM,> 100 µM,31.2 µM,> 100 µM,> 63.9 µM,–
C/C(CC(=O)Nc1cc(Cl)c(Cl)cc1Cl)=N\NC(N)=O,> 100 µM,> 100 µM,> 100 µM,> 100 µM,> 100 µM,–,> 100 µM,> 100 µM,–,–
